In publication PMC12904036, “Mechanism‐Driven Screening of Membrane‐Targeting and Pore‐Forming Antimicrobial Peptides” (Advanced Science, 2025):
Read-outs that look alike come from different tables or passages of the source. Ends that are not written are not given here.

Tests used:
HEK293T cells = assay: Cytotoxicity, Alamar Blue assay; assay type: cell-based
Protocol: Cytotoxicity was evaluated using the Alamar Blue assay on HEK293T cells. HEK293T cells were cultured in DMEM supplemented with 10% FBS and incubated at 37 °C with 5% CO2. Amphotericin B and staurosporine were used as controls. Peptide solutions were diluted in PBS (pH 7.4) with final concentrations ranging from 1 to 128 µg·mL^−1. The cells were treated with peptides for 72 h. After that, 10 µL Alamar Blue was added into each well. The plate was incubated for 4 hours under dark condition and detected the absorbance at 570 nm. The inhibition rate of cell growth was calculated via (OD570, peptide ‐ OD570, PBS) / (OD570, staurosporine ‐ OD570, PBS). The half maximal cytotoxic concentration (CC50) was fitted with GraphPad Prism. Each test was conducted in triplicate.

[1] = tested on: Bacillus subtilis ATCC 6633; assay type: cell-based; settings: ATCC 6633, 20 h
Protocol: (§1) The minimal inhibitory concentration (MIC) of all screened peptides were determined by the microbroth dilution method. Bacterial strains included four Gram‐negative strains (Acinetobacter baumanii ATCC 17978, Acinetobacter baumanii ATCC 19606, Escherichia coli ATCC 25922, Escherichia coli DH5 α ) and seven Gram‐positive strains (Staphylococcus aureus ATCC 25923, Staphylococcus aureus ATCC 6538, Bacillus subtilis ATCC 6633, Enterococcus faecalis ATCC 29212, Micrococcus luteus CMCC(B) 28001, Staphylococcus capitis ATCC 27842, Staphylococcus hominis ATCC 27844). Bacteria were incubated overnight at 37 °C and diluted to 5 × 10^5 cfu·mL^−1. Then 99 µL bacterial suspension was added into each well of a 96‐well plate. Peptides were dissolved in cation adjusted Mueller‐Hinton (CAMHB) medium at an initial concentration of 1 mg·mL^−1 and then diluted in twofold gradient concentrations, ranging from 0.125 to 128 µg·mL^−1 with 1 µL in each well. The plate was placed in incubator for 20 h at 37 °C. The lowest concentration of peptide causing no observed bacteria grow was its MIC.

[2] = synthesis report, ref ChinaPeptides Co., Ltd. quality reports, Figure S7, cited from earlier work
[3] = tested on: Micrococcus luteus CMCC(B) 28001; assay type: cell-based; settings: CMCC(B) 28001, 20 h
Protocol: as §1

[4] = tested on: Staphylococcus capitis ATCC 27842; assay type: cell-based; settings: ATCC 27842, 20 h
Protocol: as §1

[5] = tested on: Staphylococcus hominis ATCC 27844; assay type: cell-based; settings: ATCC 27844, 20 h
Protocol: as §1

[6] = tested on: Acinetobacter baumanii ATCC 17978; assay type: cell-based; settings: ATCC 17978, 20 h
Protocol: as §1

[7] = tested on: Acinetobacter baumanii ATCC 19606; assay type: cell-based; settings: ATCC 19606, 20 h
Protocol: as §1

[8] = tested on: Enterococcus faecalis ATCC 29212; assay type: cell-based; settings: ATCC 29212, 20 h
Protocol: as §1

[9] = tested on: Escherichia coli ATCC 25922; assay type: cell-based; settings: ATCC 25922, 20 h
Protocol: as §1

Escherichia coli DH5α = assay type: cell-based; settings: 20 h
Protocol: as §1

[10] = tested on: Staphylococcus aureus ATCC 25923; assay type: cell-based; settings: ATCC 25923, 20 h
Protocol: as §1

[11] = tested on: Staphylococcus aureus ATCC 6538; assay type: cell-based; settings: ATCC 6538, 20 h
Protocol: as §1

Compound | Cytotoxicity CC50 HEK293T (HEK293T cells) | Cytotoxicity CC50 HEK293T (HEK293T cells; HEK293T, Alamar Blue, 72 h treatment, 1 to 128 µg/mL, absorbance 570 nm, triplicate) | MIC B. subtilis ATCC 6633 [1] | Solubility ([2]; in 25%ACN/75%H2O) | MIC M. luteus CMCC(B) 28001 [3] | MIC S. capitis ATCC 27842 [4] | MIC S. hominis ATCC 27844 [5] | MIC A. baumannii ATCC 17978 [6] | MIC A. baumannii ATCC 19606 [7] | MIC E. faecalis ATCC 29212 [8] | MIC E. coli ATCC 25922 [9] | MIC E. coli DH5α (Escherichia coli DH5α) | MIC S. aureus ATCC 25923 [10] | MIC S. aureus ATCC 6538 [11] | Solubility ([2]; in 15%ACN/85%H2O)
C[C@@H]1[C@H](O)[C@@H](C)/C=C/C=C/C=C/C=C/C=C/C=C/C=C/[C@H](O[C@@H]2O[C@H](C)[C@@H](O)[C@H](N)[C@@H]2O)C[C@@H]2O[C@](O)(C[C@@H](O)C[C@@H](O)[C@H](O)CC[C@@H](O)C[C@@H](O)CC(=O)O[C@H]1C)C[C@H](O)[C@H]2C(=O)O [Amphotericin B] | 67.06 µg/mL | – | – | – | – | – | – | – | – | – | – | – | – | – | –
CN[C@@H]1C[C@H]2O[C@@](C)([C@@H]1OC)n1c3ccccc3c3c4c(c5c6ccccc6n2c5c31)C(=O)NC4 [Staurospotine, Staurosporine] | – | 0.26 µg/mL | – | – | – | – | – | – | – | – | – | – | – | – | –
AKLVALVNKFIGYLKQNTYC [Peptide 201] | – | – | 32 µg/mL | 1000 µg/mL | – | – | – | – | – | – | – | – | – | – | –
GFKSKLEQISGICRPLFAAMWK [Peptide 68] | > 128 µg/mL | – | 64 µg/mL | 1000 µg/mL | 128 µg/mL | 16 µg/mL | 32 µg/mL | – | – | – | – | – | – | – | –
GPIHRLINPFFNLLQGIFTN [Peptide 98] | – | – | 32 µg/mL | 1000 µg/mL | 128 µg/mL | – | – | – | – | – | – | – | – | – | –
IYKILQLFHKRFKKGFFG [Peptide 1304] | – | – | 4 µg/mL | – | 16 µg/mL | 4 µg/mL | 4 µg/mL | 16 µg/mL | 16 µg/mL | 128 µg/mL | 64 µg/mL | 32 µg/mL | 128 µg/mL | 16 µg/mL | 1000 µg/mL
KKIASIIYAHVKALRARKILDNLKRLAANRP [Peptide 615] | – | – | 16 µg/mL | – | 64 µg/mL | 16 µg/mL | 8 µg/mL | 32 µg/mL | 16 µg/mL | – | 64 µg/mL | 8 µg/mL | – | – | 1000 µg/mL
KLAKLLKLLLWAQNELDQKK [Peptide 623] | – | – | 8 µg/mL | – | 64 µg/mL | 64 µg/mL | 16 µg/mL | 32 µg/mL | 32 µg/mL | – | 128 µg/mL | 128 µg/mL | 128 µg/mL | 32 µg/mL | 1000 µg/mL
KVKVLIIRKLTRHIAKLKSKK [Peptide 58] | – | – | 8 µg/mL | – | 8 µg/mL | 4 µg/mL | 2 µg/mL | – | 128 µg/mL | 128 µg/mL | – | – | – | – | 1000 µg/mL
